Legend:
[1] = test system: conscious dogs; test: Effects of caffeine alone on MAP and HR in conscious dogs (Part I); type: in vivo, dog
Experimental: Sixteen chronically instrumented male mongrel dogs weighing from 22-30 kg were used in the study. The animal protocol was approved by the Institutional Animal Care and Use Committee of New York Medical College and conforms to the Guide for the Care and Use of Laboratory Animal by the United States National Institutes of Health.
Dogs were sedated with acepromazine (0.3 mg/kg, IM) and anesthetized with pentobarbital sodium (25 mg/kg, IV). After intubation, dogs were artificially ventilated with room air. A thoracotomy was made in the fifth intercostal space using sterile techniques. A Tygon catheter (Cardiovascular Instruments, Wakefield, Mass.) was inserted into the descending thoracic aorta and another one was inserted into the left atrium. In 9 dogs, an ultrasound flow transducer (Transonic Systems, Ithaca, N.Y.) was placed around the left circumflex coronary artery. A solid-state pressure gauge (P6.5, Konisberg Instruments, Pasadena, Calif.) was placed into the left ventricle through the apex. The chest was closed in layers. The catheters and wires were tunneled subcutaneously and externalized through the skin at the back of the dog's neck. Dogs were allowed to recover from the surgery before experiments were performed, and were trained to lie on a table.
Phasic arterial pressure was measured by connecting the aortic catheter to a strain gauge transducer (P23 ID, LDS Test and Measurement, Valley View, Ohio). Left ventricular pressures were measured by the solid pressure gauge. CBF (mL/min) was measured from an ultrasound flow transducer using a Transonic flowmeter (T206, Transonic Systems, Ithaca, N.Y.). Two indices were used to describe the regadenoson-induced coronary vasodilation: 1) the maximum increase in CBF and 2) the duration of the 2-fold increase in CBF (the period of time that CBF was elevated to a level ≧2-fold of baseline CBF). All pressure and flow data were acquired and analyzed using a Ponemah System (Version 3.30 or 4.20, LDS Test and Measurement, Valley View, Ohio). MAP and HR were calculated from phasic blood pressure, and LV dP/dtMax was calculated from the left ventricular systolic pressure.
On the day of an experiment, a dog was placed on a table, where it lay quietly during the experiment. A catheter was inserted into a peripheral vein in the leg and attached to an infusion line to administer drugs without disturbing the dog. The experiment was begun after MAP, HR and CBF were stable.
Three experiments were performed on each dog in the group.
The statistical significance of a difference between the value of a parameter at baseline and at the indicated time point after drug administration was determined using a One-Way Repeated Measures ANOVA followed by Tukey's Test. […] Results with p<0.05 were considered to be significant. A computer-based software package (SigmaStat 2.03) was used for statistical analysis. All data are presented as Mean±SEM.

[2] = test system: conscious dogs; test: Effects of regadenoson on HR and CBF before and after metoprolol in conscious dogs; type: in vivo, dog; settings: for duration of two-fold increase in CBF: in the presence of metoprolol 1.5 mg/kg
Experimental: Five mongrel dogs were chronically instrumented for measurements of systemic hemodynamics and coronary blood flow (CBF). The effects of regadenoson (1, 2.5 and 5 μg/kg, IV) on HR and CBF were assessed before and after administration of the β1-adrenergic receptor blocker metoprolol (1.5 mg/kg). Values of peak CBF and the duration of the two-fold increase in CBF above baseline were used to assess Reg-induced coronary vasodilation.

[3] = Reg 1 μg/kg IV, before metoprolol
[4] = Reg 2.5 μg/kg IV, before metoprolol
[5] = Reg 5 μg/kg IV, before metoprolol

Cn1c(=O)c2c(ncn2C)n(C)c1=O [Caffeine, caffeine]
changes in MAP and HR ([1]; caffeine 2 mg/kg IV): no significant changes | HR ([1]; caffeine 2 mg/kg IV, 2.5 min): 95 ± 5 beats/min | HR ([1]; caffeine 2 mg/kg IV, 5 min): 91 ± 5 beats/min | HR ([1]; caffeine 2 mg/kg IV, 15 min): 85 ± 6 beats/min | HR ([1]; caffeine 2 mg/kg IV, 30 min): 81 ± 7 beats/min | HR ([1]; caffeine 2 mg/kg IV, 60 min): 90 ± 9 beats/min | HR ([1]; caffeine 2 mg/kg IV, 90 min): 87 ± 5 beats/min | HR ([1]; caffeine 2 mg/kg IV, 120 min): 88 ± 6 beats/min | change in HR ([1]; caffeine 4 mg/kg IV): without a significant change | HR ([1]; caffeine 4 mg/kg IV, 2.5 min): 104 ± 5 beats/min | HR ([1]; caffeine 4 mg/kg IV, 5 min): 102 ± 4 beats/min | HR ([1]; caffeine 4 mg/kg IV, 15 min): 88 ± 6 beats/min | MAP ([1]; caffeine 4 mg/kg IV, 15 min): 99 ± 4 mm Hg | HR ([1]; caffeine 4 mg/kg IV, 30 min): 90 ± 7 beats/min | HR ([1]; caffeine 4 mg/kg IV, 60 min): 85 ± 7 beats/min | HR ([1]; caffeine 4 mg/kg IV, 90 min): 90 ± 7 beats/min | HR ([1]; caffeine 4 mg/kg IV, 120 min): 86 ± 5 beats/min | increase in MAP ([1]; caffeine 4 mg/kg IV, at both 2.5 and 5 min after injection): ~12 mm Hg | HR ([1]; caffeine 10 mg/kg IV, 2.5 min): 100 ± 4 beats/min | HR ([1]; caffeine 10 mg/kg IV, 5 min): 101 ± 4 beats/min | HR ([1]; caffeine 10 mg/kg IV, 15 min): 93 ± 5 beats/min | HR ([1]; caffeine 10 mg/kg IV, 30 min): 87 ± 5 beats/min | MAP ([1]; caffeine 10 mg/kg IV, 30 min): 101 ± 3 mm Hg | HR ([1]; caffeine 10 mg/kg IV, 60 min): 83 ± 2 beats/min | HR ([1]; caffeine 10 mg/kg IV, 90 min): 80 ± 5 beats/min | HR ([1]; caffeine 10 mg/kg IV, 120 min): 80 ± 4 beats/min | MAP ([1]; caffeine 10 mg/kg IV, 120 min): 102 ± 2 mm Hg

CNC(=O)c1cnn(-c2nc(N)c3ncn([C@@H]4O[C@H](CO)[C@@H](O)[C@H]4O)c3n2)c1 [Regadenoson, (1-{9-[(4S,2R,3R,5R)-3,4-dihydroxy-5-(hydroxymethyl)oxolan-2-yl]-6-aminopurin-2-yl}pyrazol-4-yl)-N-methylcarboxamide]
increase in HR (ΔHR) ([2]; Reg 1 μg/kg IV, after metoprolol 1.5 mg/kg IV): 19±4 bpm | duration of 2-fold increase in CBF [2, 3]: 93 ± 22 s | increase in HR (ΔHR) [2, 3]: 49±8 bpm | increase in peak CBF (ΔCBF) [2, 3]: 129 ± 10 mL/min | duration of two-fold increase in CBF ([2]; Reg 1 μg/kg IV): 71 ± 34 s | increase in peak CBF (ΔCBF) ([2]; Reg 1 μg/kg IV, in the presence of metoprolol 1.5 mg/kg (NS)): 112 ± 5 mL/min | increase in HR (ΔHR) ([2]; Reg 2.5 μg/kg IV, after metoprolol 1.5 mg/kg IV): 28±3 bpm | duration of 2-fold increase in CBF [2, 4]: 316 ± 57 s | increase in HR (ΔHR) [2, 4]: 63±5 bpm | increase in peak CBF (ΔCBF) [2, 4]: 149 ± 7 mL/min | duration of two-fold increase in CBF ([2]; Reg 2.5 μg/kg IV): 215 ± 45 s | increase in peak CBF (ΔCBF) ([2]; Reg 2.5 μg/kg IV, in the presence of metoprolol 1.5 mg/kg (NS)): 136 ± 16 mL/min | increase in HR (ΔHR) ([2]; Reg 5 μg/kg IV, after metoprolol 1.5 mg/kg IV): 39±5 bpm | duration of 2-fold increase in CBF [2, 5]: 593 ± 86 s | increase in HR (ΔHR) [2, 5]: 71±7 bpm | increase in peak CBF (ΔCBF) [2, 5]: 174 ± 10 mL/min | duration of two-fold increase in CBF ([2]; Reg 5 μg/kg IV): 364 ± 86 s | increase in peak CBF (ΔCBF) ([2]; Reg 5 μg/kg IV, in the presence of metoprolol 1.5 mg/kg (p<0.05)): 138 ± 9 mL/min
